Test results published in patent publication US20170281587A1, “ERYTHROCYTE FUNCTION IMPROVING AGENT” (Glico Nutrition Co., Ltd., priority 2014, published 2017).
Several values for one entry are separate records, joined by “and”; a condition that tells them apart may be missing. Identical values can stand only once.

Key:
red blood cells [1] = details: cited from earlier work
red blood cells [2] = details: in vivo, po
Procedure: In this test, paprika carotenoids rich in carotenoids having 3,6-epoxy end groups or 5-membered ring end groups were orally administered to an adult, and cucurbitaxanthin A, capsanthin, capsorubin, and capsanthin 3,6-epoxide were evaluated for their ability to migrate into red blood cells. A specific testing method was as described below.
Initially, 15 g of a paprika pigment emulsified preparation (PapriX; total amount of carotenoids: 10 mg/g) from Glico Nutrition Co., Ltd., 30 g of dextrin, 70 g of sugar, and 3 g of citric acid were dissolved in 1 L of water to prepare a test beverage containing the paprika carotenoids. The paprika pigment emulsified preparation contained 0.053 mass % of cucurbitaxanthin A, 0.40 mass % of capsanthin, 0.021 mass % of capsorubin, and 0.034 mass % of capsanthin 3,6-epoxide, and the test beverage contained 0.00079 mass % of cucurbitaxanthin A, 0.0060 mass % of capsanthin, 0.00031 mass % of capsorubin, and 0.00051 mass % of capsanthin 3,6-epoxide.
Before the beginning of the ingestion and after 4 weeks from the ingestion, blood was collected to obtain blood samples. Red blood cells were separated from the obtained blood samples, and the carotenoids (capsanthin 3,6-epoxide, cucurbitaxanthin A, capsanthin, and capsorubin) present in red blood cells were quantified by HPLC.

[3] = 30 healthy males and females, oral administration for 12 weeks

SMILES	astaxanthin in the red blood cells (red blood cells [1]; [3])	lipid peroxides in the red blood cells (red blood cells [1]; [3])	migration ratio into red blood cells (red blood cells [1]; day 84 after the ingestion, calculated from literature disclosure)	ability to migrate into red blood cells (migration ratio into red blood cells) (red blood cells [2])
CC1=C(/C=C/C(C)=C/C=C/C(C)=C/C=C/C=C(C)/C=C/C=C(C)/C=C/C2=C(C)C(=O)[C@@H](O)CC2(C)C)C(C)(C)C[C@H](O)C1=O [astaxanthin]	an increase in astaxanthin	a decrease in lipid peroxides	0.0089% and 0.0057%	–
CC(/C=C/C=C(C)/C=C/C(=O)[C@]1(C)C[C@@H](O)CC1(C)C)=C\C=C\C=C(C)\C=C\C=C(C)\C=C\[C@@]12O[C@@H](CC1(C)C)C[C@@]2(C)O [capsanthin 3,6-epoxide]	–	–	–	little migration into red blood cells
CC1=C(/C=C/C(C)=C/C=C/C(C)=C/C=C/C=C(C)/C=C/C=C(C)/C=C/C(=O)[C@]2(C)C[C@@H](O)CC2(C)C)C(C)(C)C[C@H](O)C1 [capsanthin]	–	–	–	little migration into red blood cells
CC(/C=C/C=C(C)/C=C/C(=O)[C@]1(C)C[C@@H](O)CC1(C)C)=C\C=C\C=C(C)\C=C\C=C(C)\C=C\C(=O)[C@]1(C)C[C@@H](O)CC1(C)C [capsorubin]	–	–	–	little migration into red blood cells
CC1=C(/C=C/C(C)=C/C=C/C(C)=C/C=C/C=C(C)/C=C/C=C(C)/C=C/[C@@]23O[C@@H](CC2(C)C)C[C@@]3(C)O)C(C)(C)C[C@H](O)C1 [cucurbitaxanthin A, (3S,3′R,5R,6R)-3,6-epoxy-5,6-dihydro-β,β-carotene-3′,5-diol]	–	–	–	markedly high ability to migrate into red blood cells
